Measurements from ChEMBL document CHEMBL1143885, “Aryl-indolyl maleimides as inhibitors of CaMKIIdelta. Part 1: SAR of the aryl region” (Bioorg Med Chem Lett, 2008).

Biological target: Calcium/calmodulin-dependent protein kinase type II subunit delta (Homo sapiens, UniProt Q13557)
Experiment: Inhibition of CaMK2delta

Chain of Calcium/calmodulin-dependent protein kinase type II subunit delta (Q13557 whole entry): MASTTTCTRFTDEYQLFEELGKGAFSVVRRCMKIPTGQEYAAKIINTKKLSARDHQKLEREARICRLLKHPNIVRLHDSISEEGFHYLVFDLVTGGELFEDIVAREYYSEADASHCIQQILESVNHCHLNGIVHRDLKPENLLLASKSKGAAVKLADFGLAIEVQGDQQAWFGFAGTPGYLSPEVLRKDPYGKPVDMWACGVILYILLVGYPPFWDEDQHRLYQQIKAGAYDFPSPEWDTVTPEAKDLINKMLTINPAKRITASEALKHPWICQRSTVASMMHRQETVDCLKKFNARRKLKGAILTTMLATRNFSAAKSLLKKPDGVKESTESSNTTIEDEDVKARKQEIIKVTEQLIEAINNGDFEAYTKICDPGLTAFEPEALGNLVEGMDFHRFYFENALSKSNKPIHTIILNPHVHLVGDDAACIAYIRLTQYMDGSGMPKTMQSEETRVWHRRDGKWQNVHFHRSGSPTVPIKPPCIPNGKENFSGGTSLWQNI

Compound	IC50
NCCCn1cc(C2=C(c3cccs3)C(=O)NC2=O)c2ccccc21	1190 nM
NCCCn1cc(C2=C(c3cccnc3)C(=O)NC2=O)c2ccccc21	540 nM
CC(C)(C)OC(=O)NCCCn1cc(C2=C(c3csc4ccccc34)C(=O)NC2=O)c2ccccc21	> 20000 nM
NCCCn1cc(C2=C(c3ccnc4ccccc34)C(=O)NC2=O)c2ccccc21	630 nM
CN1C(=O)C(c2ccccc2)=C(c2cn(CCCN)c3ccccc23)C1=O	15000 nM
Cc1[nH]c2ccccc2c1C1=C(c2cn(CCCNC(=O)OC(C)(C)C)c3ccccc23)C(=O)NC1=O	7610 nM
NCCCn1cc(C2=C(c3cccc(Oc4ccccc4)c3)C(=O)NC2=O)c2ccccc21	1680 nM
CN1C(=O)C(c2csc3ccccc23)=C(c2cn(CCCN)c3ccccc23)C1=O	2320 nM
NCCCn1cc(C2=C(c3ccccn3)C(=O)NC2=O)c2ccccc21	1580 nM
Cc1cccc(C2=C(c3cn(CCCN)c4ccccc34)C(=O)NC2=O)c1	280 nM
NCCCn1cc(C2=C(c3ccco3)C(=O)NC2=O)c2ccccc21	1490 nM
NCCCn1cc(C2=C(c3cccc(-c4ccccc4)c3)C(=O)NC2=O)c2ccccc21	1320 nM
CC(C)(C)OC(=O)NCCCn1cc(C2=C(c3cccs3)C(=O)NC2=O)c2ccccc21	> 20000 nM
NCCCn1cc(C2=C(c3ccc4ccccc4n3)C(=O)NC2=O)c2ccccc21	> 20000 nM
NCCCn1cc(C2=C(c3cccc4ccccc34)C(=O)NC2=O)c2ccccc21	290 nM
NCCCn1cc(C2=C(c3ccncc3)C(=O)NC2=O)c2ccccc21	1600 nM
NCCCn1cc(C2=C(c3ccc4ccccc4c3)C(=O)NC2=O)c2ccccc21	500 nM
CN1C(=O)C(c2c[nH]c3ccc(Br)cc23)=C(c2cn(CCCN)c3ccccc23)C1=O	> 20000 nM
